Reference: patent publication US7517875B2, “Piperidine derivatives having CCR3 antagonism” (Teijin Limited, priority 2002, dated 2009)

What follows are molecules tested against T1, CCR3 receptor (Homo sapiens, UniProt P51677) (assay: Inhibition of eotaxin-induced intracellular calcium concentration increase in CCR3-expressing cells). Conditions: 2 μM concentration of compound; CCR3-expressing K562 cells; human eotaxin 0.5 μg/ml; read-out: inhibition of eotaxin-induced intracellular calcium concentration increase (Suppression).
T1 construct: expressed in transfected cells; host or cells: K562 cells
T1 sequence (P51677 1-355): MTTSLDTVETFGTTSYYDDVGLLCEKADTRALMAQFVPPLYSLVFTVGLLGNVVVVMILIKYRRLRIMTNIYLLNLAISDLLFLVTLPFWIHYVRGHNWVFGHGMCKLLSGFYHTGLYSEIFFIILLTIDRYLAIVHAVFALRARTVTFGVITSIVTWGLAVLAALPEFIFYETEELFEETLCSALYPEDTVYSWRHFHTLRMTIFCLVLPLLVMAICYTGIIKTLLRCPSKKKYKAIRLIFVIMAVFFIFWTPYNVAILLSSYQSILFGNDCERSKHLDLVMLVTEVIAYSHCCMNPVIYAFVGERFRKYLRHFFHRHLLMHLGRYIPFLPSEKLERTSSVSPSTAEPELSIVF
Type: cell-based
Method: Measurement of Inhibiting Power of Test Compounds Against Eotaxin-Induced Intracellular Calcium Concentration Increase in CCR3-Expressing Cells
K562 cells stably expressing CCR3 receptor were used in the following method for measurement of the inhibiting power of compounds of the invention against intracellular calcium concentration increase.
The CCR3-expressing K562 cells were suspended in HBSS solution (Hanks' Balanced Salt Solution, Gibco BRL) containing 10 mM HEPES (N-[2-hydroxyethyl]piperazine-N′-[2-ethanesulfonic acid], Gibco BRL), and then 1 mM Fura-2 acetoxymethyl ester (product of Dojin Kagaku) was added to a final concentration of 1 μM and the mixture was incubated at 37° C. for 30 minutes. After rinsing the cells, they were added simultaneously with the test compound into a 96-well white plate (Falcon), the agonist was added after 5 minutes, the mixture was excited at 340 nm and 380 nm, and the 340/380 ratio was monitored to measure the intracellular calcium concentration. Human eotaxin (product of Genzyme Techne) (0.5 μg/ml) was used as an agonist. The inhibiting power of the test compound was determined by measuring the intracellular calcium concentration upon treatment of the CCR3-expressing K562 cells with the test compound 5 minutes before eotaxin stimulation, and calculating the suppression by the following formula. Suppression (%)={1−(A−B)/(C−B)}×100 (A: Intracellular calcium concentration upon stimulation with eotaxin after treatment with test compound, B: Intracellular calcium concentration without stimulation, C: Intracellular calcium concentration upon stimulation with eotaxin without treatment with test compound)

Row | inhibition at 2 µM | Structure (SMILES)
1 | 20 to 50% | COC(=O)c1cccc2[nH]c(NCC3CCN(Cc4cc(Cl)cc(Cl)c4O)CC3)nc12 [1-4-1, 2-{[1-(3,5-dichloro-2-hydroxy-benzyl)-piperidin-4-ylmethyl]-amino}-1H-benzimidazole-4-carboxylic acid methyl ester]
2 | ≥ 80% | CC(=O)NCCC(=O)Nc1cccc2[nH]c(NCC3CCN(Cc4cccc5ccccc45)CC3)nc12 [1-3-1, 3-acetylamino-N-{2-[(1-naphthalen-1-ylmethyl-piperidin-4-ylmethyl)-amino]-1H-benzimidazol-4-yl}-propionamide]
3 | ≥ 80% | COCCNC(=O)c1cccc2[nH]c(NCC3CCN(Cc4cc(Cl)ccc4O)CC3)nc12 [1-4-10, 2-{[1-(5-chloro-2-hydroxy-benzyl)-piperidin-4-ylmethyl]-amino}-1H-benzimidazole-4-carboxylic acid (2-methoxy-ethyl)-amide]

Same assay, conditions: 10 μM concentration of compound; CCR3-expressing K562 cells; human eotaxin 0.5 μg/ml; read-out: inhibition of eotaxin-induced intracellular calcium concentration increase (Suppression)

Row | inhibition at 10 µM | Structure (SMILES)
4 | ≥ 80% | Cn1c(CN2CCC(CNc3nc4ccccc4[nH]3)CC2)cc2ccccc21 [1-2-1, (1H-benzimidazol-2-yl)-[1-(1-methyl-1H-indol-2-ylmethyl)-piperidin-4-ylmethyl]-amine]
5 | ≥ 80% | Nc1cccc2[nH]c(NCC3CCN(Cc4ccc(Cl)c(Cl)c4)CC3)nc12 [1-3-61, N2-[1-(3,4-dichlorobenzyl)-piperidin-4-ylmethyl]-1H-benzimidazole-2,4-diamine]
6 | 50 to 80% | c1ccc(CCCCN2CCC(CNc3nc4ccccc4[nH]3)CC2)cc1 [1-2-170, (1H-benzimidazol-2-yl)-[1-(4-phenyl-butyl)-piperidin-4-ylmethyl]-amine]
7 | ≥ 80% | Clc1ccc(CN2CCC(CNc3nc4ccccc4[nH]3)CC2)cc1Cl [1-1-1, (1H-benzoimidazol-2-yl)-[1-(3,4-dichloro-benzyl)-piperidin-4-ylmethyl]-amine]
8 | 50 to 80% | O=C(O)c1ccc2[nH]c(NCC3CCN(CCCc4ccccc4)CC3)nc2c1 [1-5-20, 2-{[1-(3-phenyl-propyl)-piperidin-4-ylmethyl]-amino}-1H-benzimidazole-5-carboxylic acid]
9 | ≥ 80% | CCNC(=O)Nc1cccc2[nH]c(NCC3CCN(Cc4ccc(Cl)c(Cl)c4)CC3)nc12 [1-3-59, 1-(2-{[1-(3,4-dichloro-benzyl)-piperidin-4-ylmethyl]-amino}-1H-benzimidazol-4-yl)-3-ethyl-urea]
